{
  "source": "patent US20260356819A1",
  "about": "“OXOISOINDOLINYL-SUBSTITUTED […] DERIVATIVE AND USE THEREOF” (GLUETACS THERAPEUTICS (SHANGHAI) CO., LTD., priority 2023, published 2026)",
  "key": {"MV-4-11 cells": {"tested_on": "MV-4-11 cells", "experiment": "Inhibition of proliferation of myeloid monocytic leukemia cells MV-4-11 (cell viability assay, 96 h)", "assay_type": "cell-based, human", "details": "read-out: inhibitory activity (IC50) against tumor cells proliferation, MV-4-11", "description": "(§1) The tumor cells used herein were cultured in a cell culture medium listed in table 2 at 37 °C in an incubator with 5% CO2. Prior to experimentation, all cell lines used were correctly identified by STR profiling, and tested negative for Mycoplasma contamination using a Mycoplasma detection kit through routine screenings.\n(§2) The IC50 values of the compounds of the present disclosure (including the compounds in Table 1, and Examples 1-498) were determined using the CellTiter-Meiluncell Luminescent Cell Viability Assay Kit from Dalian Meilun Biotech Co., Ltd. The detailed procedure is as follows: Tumor cells were seeded in 96-well cell culture plates at the densities specified in Table 3. On the following day, the test compounds of the present disclosure were subjected to serial dilution. […] Subsequently, 0.5 μL of the test compound dilution was transferred into the 96-well plate containing the cells, with each well containing 100 μL of cell culture medium. […] Into the 96-well plate, the diluted test compounds and corresponding detection reagents were added, resulting in final test compound concentrations of 500 nM and 10 nM, respectively. The experimental procedure is described below using the diluted 2 μM test compound as an example.\n(§3) 0.5 μL of the aforementioned diluted compound of the present disclosure (including the compounds in Table 1, and Examples 1-498) was added to the seeded cells in 100 μL of medium, yielding a final test compound concentration of 10 nM. After the cells were treated with the compounds of the present disclosure for a specified period, the cell viability assay reagent was added to the culture medium according to the kit's instructions to determine cell viability. […] All controls were treated using the same procedure as the compounds of the present disclosure. The growth inhibition curves for the compounds of the present disclosure were plotted using Prism GraphPad software, and the IC50 values were calculated therefrom."}, "IKZF3": {"target": "T1, IKZF3 (Homo sapiens, UniProt Q96SW2+Q9UKT9)", "T1 construct": "The supernatant was aspirated as the extracted total cell protein; endogenous in cells; host or cells: human peripheral blood mononuclear cells (hPBMCs)", "experiment": "Western blot degradation of IKZF3 in hPBMCs (24 h)", "assay_type": "cell-based", "details": "compounds at 50 nM and 500 nM", "method_in_brief": "(§4)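 hPBMCs (1×10^6 cells/mL) exposed to compound at 50 nM and 500 nM for 24 h, DMSO as reference. Lysates run on SDS-PAGE and immunoblotted. Band grayscale normalized to internal control gives % protein remaining; DC50 from fitted concentration-response of band intensity versus DMSO.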"}, "MM.1S cells": {"tested_on": "MM.1S cells", "experiment": "Inhibition of proliferation of multiple myeloma cells MM.1S (cell viability assay, 96 h)", "assay_type": "cell-based, human", "details": "read-out: inhibitory activity (IC50) against tumor cells proliferation, MM.1S"}, "Jurkat cells": {"tested_on": "Jurkat cells", "experiment": "Inhibition of proliferation of T lymphocytic leukemia cells Jurkat (cell viability assay, 96 h)", "assay_type": "cell-based, human", "details": "read-out: inhibitory activity (IC50) against tumor cells proliferation, Jurkat", "description": "as §1, §2, §3"}, "IKZF1": {"target": "T2, IKZF1 (Homo sapiens, UniProt Q13422+Q96SW2)", "T2 construct": "The supernatant was aspirated as the extracted total cell protein; endogenous in cells; host or cells: human peripheral blood mononuclear cells (hPBMCs)", "T2 sequence (Q13422 whole entry)": "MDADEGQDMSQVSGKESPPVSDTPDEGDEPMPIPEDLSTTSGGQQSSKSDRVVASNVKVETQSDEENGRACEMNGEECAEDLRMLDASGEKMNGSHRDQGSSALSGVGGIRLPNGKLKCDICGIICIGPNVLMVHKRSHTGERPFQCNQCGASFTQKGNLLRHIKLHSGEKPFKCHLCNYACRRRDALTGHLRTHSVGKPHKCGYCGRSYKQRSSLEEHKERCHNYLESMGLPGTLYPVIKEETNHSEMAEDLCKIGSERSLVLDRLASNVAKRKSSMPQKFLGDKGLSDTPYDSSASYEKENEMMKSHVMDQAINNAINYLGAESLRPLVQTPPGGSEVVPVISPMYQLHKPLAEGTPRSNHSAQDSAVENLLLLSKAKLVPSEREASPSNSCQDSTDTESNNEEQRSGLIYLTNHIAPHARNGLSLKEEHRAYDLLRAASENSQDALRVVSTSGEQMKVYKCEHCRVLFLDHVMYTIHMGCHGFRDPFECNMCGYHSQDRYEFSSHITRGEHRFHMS", "T2 sequence (Q96SW2 whole entry)": "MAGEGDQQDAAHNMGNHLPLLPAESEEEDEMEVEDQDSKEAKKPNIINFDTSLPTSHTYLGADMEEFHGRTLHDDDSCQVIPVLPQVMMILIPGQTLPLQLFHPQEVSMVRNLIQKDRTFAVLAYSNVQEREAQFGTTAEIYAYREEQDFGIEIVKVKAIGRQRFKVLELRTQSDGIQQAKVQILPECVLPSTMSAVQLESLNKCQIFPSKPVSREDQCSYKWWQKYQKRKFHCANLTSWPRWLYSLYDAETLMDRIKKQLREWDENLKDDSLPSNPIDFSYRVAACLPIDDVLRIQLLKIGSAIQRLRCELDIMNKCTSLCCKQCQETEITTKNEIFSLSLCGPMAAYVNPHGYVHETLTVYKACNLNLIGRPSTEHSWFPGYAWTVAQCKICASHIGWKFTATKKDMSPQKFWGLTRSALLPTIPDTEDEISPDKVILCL", "T2 sequence (Q16531 whole entry partner)": "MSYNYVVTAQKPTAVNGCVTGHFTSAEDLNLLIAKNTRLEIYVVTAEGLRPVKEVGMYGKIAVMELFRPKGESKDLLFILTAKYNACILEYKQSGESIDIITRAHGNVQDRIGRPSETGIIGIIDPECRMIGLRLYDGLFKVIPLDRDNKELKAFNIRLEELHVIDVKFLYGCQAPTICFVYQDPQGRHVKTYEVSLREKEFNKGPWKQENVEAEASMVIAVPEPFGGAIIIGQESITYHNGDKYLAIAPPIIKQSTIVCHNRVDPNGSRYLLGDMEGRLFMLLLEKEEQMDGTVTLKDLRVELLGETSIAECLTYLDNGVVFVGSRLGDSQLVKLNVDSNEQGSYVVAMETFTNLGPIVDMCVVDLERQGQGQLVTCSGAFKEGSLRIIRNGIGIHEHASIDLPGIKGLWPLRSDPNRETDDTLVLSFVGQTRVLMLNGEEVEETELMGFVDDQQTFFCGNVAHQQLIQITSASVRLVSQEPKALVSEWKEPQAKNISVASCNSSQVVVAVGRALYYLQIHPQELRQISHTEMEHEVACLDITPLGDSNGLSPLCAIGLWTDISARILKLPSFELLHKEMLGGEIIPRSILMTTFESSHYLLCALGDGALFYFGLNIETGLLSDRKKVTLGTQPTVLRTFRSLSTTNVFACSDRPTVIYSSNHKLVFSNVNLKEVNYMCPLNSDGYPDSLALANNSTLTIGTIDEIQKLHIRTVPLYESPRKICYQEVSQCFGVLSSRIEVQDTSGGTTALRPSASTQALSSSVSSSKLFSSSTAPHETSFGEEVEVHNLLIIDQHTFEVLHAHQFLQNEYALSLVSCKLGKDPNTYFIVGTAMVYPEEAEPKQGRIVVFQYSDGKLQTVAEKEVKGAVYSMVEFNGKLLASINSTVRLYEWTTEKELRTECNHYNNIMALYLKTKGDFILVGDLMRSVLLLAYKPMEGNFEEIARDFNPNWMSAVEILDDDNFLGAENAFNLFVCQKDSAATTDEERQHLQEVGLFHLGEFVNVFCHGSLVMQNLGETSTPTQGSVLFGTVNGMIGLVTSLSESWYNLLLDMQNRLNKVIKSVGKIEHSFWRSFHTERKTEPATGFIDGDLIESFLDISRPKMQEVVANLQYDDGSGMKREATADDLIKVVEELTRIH", "experiment": "Western blot degradation of IKZF1 in hPBMCs (24 h)", "assay_type": "cell-based", "details": "compounds at 50 nM and 500 nM", "method_in_brief": "as §4"}, "WEE1": {"target": "T3, WEE1 (Homo sapiens, UniProt P30291+Q96SW2)", "T3 construct": "The supernatant was aspirated as the extracted total cell protein; endogenous in cells; host or cells: human peripheral blood mononuclear cells (hPBMCs)", "T3 sequence (P30291 whole entry)": "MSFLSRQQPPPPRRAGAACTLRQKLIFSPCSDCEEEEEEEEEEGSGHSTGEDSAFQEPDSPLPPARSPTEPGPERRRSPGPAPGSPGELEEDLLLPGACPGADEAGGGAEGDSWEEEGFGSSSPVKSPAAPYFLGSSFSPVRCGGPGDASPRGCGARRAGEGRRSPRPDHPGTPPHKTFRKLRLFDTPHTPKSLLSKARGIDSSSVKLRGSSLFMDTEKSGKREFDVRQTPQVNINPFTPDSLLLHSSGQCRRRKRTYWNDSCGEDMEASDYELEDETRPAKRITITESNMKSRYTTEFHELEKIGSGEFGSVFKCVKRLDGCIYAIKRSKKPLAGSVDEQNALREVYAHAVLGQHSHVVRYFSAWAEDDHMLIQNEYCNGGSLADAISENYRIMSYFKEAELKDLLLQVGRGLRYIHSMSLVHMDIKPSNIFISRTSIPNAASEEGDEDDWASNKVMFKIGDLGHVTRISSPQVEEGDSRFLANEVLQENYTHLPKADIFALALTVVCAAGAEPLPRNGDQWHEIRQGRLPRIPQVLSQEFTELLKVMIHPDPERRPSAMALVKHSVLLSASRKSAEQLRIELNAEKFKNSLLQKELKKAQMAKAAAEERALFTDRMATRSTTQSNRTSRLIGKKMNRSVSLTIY", "T3 sequence (Q96SW2 whole entry)": "as the sequence (Q96SW2 whole entry) above", "T3 sequence (Q16531 whole entry partner)": "as the sequence (Q16531 whole entry partner) above", "experiment": "Western blot degradation of WEE1 in hPBMCs (24 h)", "assay_type": "cell-based", "details": "compounds at 50 nM and 500 nM", "method_in_brief": "as §4"}, "GSPT1": {"target": "T4, GSPT1 (Homo sapiens, UniProt P15170+Q96SW2)", "T4 construct": "The supernatant was aspirated as the extracted total cell protein; endogenous in cells; host or cells: human peripheral blood mononuclear cells (hPBMCs)", "T4 sequence (P15170 whole entry)": "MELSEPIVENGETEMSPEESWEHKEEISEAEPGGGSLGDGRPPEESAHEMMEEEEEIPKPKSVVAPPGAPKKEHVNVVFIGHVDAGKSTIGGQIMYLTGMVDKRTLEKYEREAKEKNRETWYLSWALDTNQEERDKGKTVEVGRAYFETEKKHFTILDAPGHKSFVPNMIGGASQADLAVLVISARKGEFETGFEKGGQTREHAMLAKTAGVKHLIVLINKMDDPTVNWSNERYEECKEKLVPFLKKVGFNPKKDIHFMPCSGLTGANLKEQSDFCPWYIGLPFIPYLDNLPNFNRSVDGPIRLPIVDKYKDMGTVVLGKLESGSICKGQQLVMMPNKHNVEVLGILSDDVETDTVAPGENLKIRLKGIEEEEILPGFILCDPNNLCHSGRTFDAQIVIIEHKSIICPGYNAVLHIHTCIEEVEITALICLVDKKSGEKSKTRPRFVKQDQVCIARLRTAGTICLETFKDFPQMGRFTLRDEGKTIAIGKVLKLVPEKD", "T4 sequence (Q96SW2 whole entry)": "as the sequence (Q96SW2 whole entry) above", "T4 sequence (Q16531 whole entry partner)": "as the sequence (Q16531 whole entry partner) above", "experiment": "Western blot degradation of GSPT1 in hPBMCs (24 h)", "assay_type": "cell-based", "details": "compounds at 50 nM and 500 nM", "method_in_brief": "as §4"}, "CK1α": {"target": "T5, CK1α (Homo sapiens, UniProt P48729+Q96SW2)", "T5 construct": "The supernatant was aspirated as the extracted total cell protein; endogenous in cells; host or cells: human peripheral blood mononuclear cells (hPBMCs)", "T5 sequence (P48729 whole entry)": "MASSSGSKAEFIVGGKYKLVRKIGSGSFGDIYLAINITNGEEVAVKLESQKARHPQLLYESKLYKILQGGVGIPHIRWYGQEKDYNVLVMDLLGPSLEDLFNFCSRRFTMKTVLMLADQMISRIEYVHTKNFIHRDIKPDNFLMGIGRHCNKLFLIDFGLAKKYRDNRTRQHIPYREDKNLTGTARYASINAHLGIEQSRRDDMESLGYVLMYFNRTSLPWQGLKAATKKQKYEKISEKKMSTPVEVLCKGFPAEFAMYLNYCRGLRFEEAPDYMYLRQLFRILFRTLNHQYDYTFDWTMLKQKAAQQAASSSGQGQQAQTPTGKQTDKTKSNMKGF", "T5 sequence (Q96SW2 whole entry)": "as the sequence (Q96SW2 whole entry) above", "T5 sequence (Q16531 whole entry partner)": "as the sequence (Q16531 whole entry partner) above", "experiment": "Western blot degradation of CK1α in hPBMCs (24 h)", "assay_type": "cell-based", "details": "compounds at 50 nM and 500 nM", "method_in_brief": "as §4"}, "IKZF2": {"target": "T6, IKZF2 (Homo sapiens, UniProt Q96SW2+Q9UKS7)", "T6 construct": "The supernatant was aspirated as the extracted total cell protein; endogenous in cells; host or cells: human peripheral blood mononuclear cells (hPBMCs)", "T6 sequence (Q9UKS7 whole entry)": "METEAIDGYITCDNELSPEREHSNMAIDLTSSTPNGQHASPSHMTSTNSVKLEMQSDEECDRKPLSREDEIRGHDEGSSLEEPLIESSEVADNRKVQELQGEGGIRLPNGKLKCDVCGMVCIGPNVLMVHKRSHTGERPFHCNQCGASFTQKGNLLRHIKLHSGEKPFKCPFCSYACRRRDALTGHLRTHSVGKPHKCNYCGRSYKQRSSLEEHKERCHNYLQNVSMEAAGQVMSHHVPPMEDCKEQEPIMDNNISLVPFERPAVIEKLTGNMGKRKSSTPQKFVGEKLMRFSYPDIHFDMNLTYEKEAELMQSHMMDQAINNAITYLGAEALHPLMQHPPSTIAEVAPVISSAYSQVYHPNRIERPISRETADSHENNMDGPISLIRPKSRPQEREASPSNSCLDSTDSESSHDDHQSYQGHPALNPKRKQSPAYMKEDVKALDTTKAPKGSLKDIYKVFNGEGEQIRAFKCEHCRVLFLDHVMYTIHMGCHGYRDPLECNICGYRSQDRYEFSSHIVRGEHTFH", "T6 sequence (Q96SW2 whole entry)": "as the sequence (Q96SW2 whole entry) above", "T6 sequence (Q16531 whole entry partner)": "as the sequence (Q16531 whole entry partner) above", "experiment": "Western blot degradation of IKZF2 in hPBMCs (24 h)", "assay_type": "cell-based", "details": "compounds at 50 nM and 500 nM", "method_in_brief": "as §4"}},
  "note": "pIC50: −log10 of the molar value.",
  "data": [
    {"smiles": "O=C1CCN(N2Cc3cc(CN4CCN(c5ccc(C(F)(F)F)cc5)CC4)ccc3C2=O)C(=O)N1", "note": "[GT-06700, 1-(1-oxo-5-((4-(4-(trifluoromethyl)phenyl)piperazin-1-yl)methyl)isoindolin-2-yl)dihydropyrimidine-2,4(1H,3H)-dione]", "values": [
      {"measurement": "pIC50", "setting": "MV-4-11 cells", "result": "7.00 to 7.30"}
    ]},
    {"smiles": "Cn1cc(C2CCN(Cc3ccc4c(c3)CN(N3CCC(=O)NC3=O)C4=O)CC2)c2ccc(F)cc21", "note": "[GT-07575, 1-(5-((4-(6-fluoro-1-methyl-1H-indol-3-yl)piperidin-1-yl)methyl)-1-oxoisoindolin-2-yl)dihydropyrimidine-2,4(1H,3H)-dione]", "values": [
      {"measurement": "IKZF3 substrate protein remaining %", "setting": "IKZF3", "result": "A (0% ≤ substrate protein remaining % ≤80%)"},
      {"measurement": "pIC50", "setting": "MM.1S cells", "result": "6.52 to 7.00"},
      {"measurement": "pIC50", "setting": "Jurkat cells", "result": "6.52 to 7.00"},
      {"measurement": "IKZF1 substrate protein remaining %", "setting": "IKZF1", "result": "A (0% ≤ substrate protein remaining % ≤80%)"},
      {"measurement": "WEE1 substrate protein remaining %", "setting": "WEE1", "result": "A (0% ≤ substrate protein remaining % ≤80%)"},
      {"measurement": "GSPT1 substrate protein remaining %", "setting": "GSPT1", "result": "A (0% ≤ substrate protein remaining % ≤80%)"},
      {"measurement": "CK1α substrate protein remaining %", "setting": "CK1α", "result": "A (0% ≤ substrate protein remaining % ≤80%)"},
      {"measurement": "IKZF2 substrate protein remaining %", "setting": "IKZF2", "result": "A (0% ≤ substrate protein remaining % ≤80%)"}
    ]},
    {"smiles": "O=C1CCN(N2Cc3cc(CN4CC=C(c5c[nH]c6ncccc56)CC4)ccc3C2=O)C(=O)N1", "note": "[GT-07577, 1-(5-((4-(1H-pyrrolo[2,3-b]pyridin-3-yl)-3,6-dihydropyridin-1 (2H)-yl)methyl)-1-oxoisoindolin-2-yl)dihydropyrimidine-2,4(1H,3H)-dione]", "values": [
      {"measurement": "IKZF3 substrate protein remaining %", "setting": "IKZF3", "result": "A (0% ≤ substrate protein remaining % ≤80%)"},
      {"measurement": "pIC50", "setting": "MM.1S cells", "result": "6.30 to 6.52"},
      {"measurement": "pIC50", "setting": "Jurkat cells", "result": "6.00 to 6.30"},
      {"measurement": "IKZF1 substrate protein remaining %", "setting": "IKZF1", "result": "A (0% ≤ substrate protein remaining % ≤80%)"},
      {"measurement": "WEE1 substrate protein remaining %", "setting": "WEE1", "result": "A (0% ≤ substrate protein remaining % ≤80%)"},
      {"measurement": "GSPT1 substrate protein remaining %", "setting": "GSPT1", "result": "A (0% ≤ substrate protein remaining % ≤80%)"},
      {"measurement": "CK1α substrate protein remaining %", "setting": "CK1α", "result": "A (0% ≤ substrate protein remaining % ≤80%)"},
      {"measurement": "IKZF2 substrate protein remaining %", "setting": "IKZF2", "result": "B (80%< substrate protein remaining % ≤100%)"}
    ]},
    {"smiles": "O=C1CCN(N2Cc3cc(CN4CC=C(c5n[nH]c6cc(F)ccc56)CC4)ccc3C2=O)C(=O)N1", "note": "[GT-07578, 1-(5-((4-(6-fluoro-1H-indazol-3-yl)-3,6-dihydropyridin-1(2H)-yl)methyl)-1-oxoisoindolin-2-yl)dihydropyrimidine-2,4(1H,3H)-dione]", "values": [
      {"measurement": "IKZF3 substrate protein remaining %", "setting": "IKZF3", "result": "B (80%< substrate protein remaining % ≤100%)"},
      {"measurement": "pIC50", "setting": "MM.1S cells", "result": "7.00 to 7.30"},
      {"measurement": "pIC50", "setting": "Jurkat cells", "result": "7.00 to 7.30"},
      {"measurement": "IKZF1 substrate protein remaining %", "setting": "IKZF1", "result": "A (0% ≤ substrate protein remaining % ≤80%)"},
      {"measurement": "WEE1 substrate protein remaining %", "setting": "WEE1", "result": "A (0% ≤ substrate protein remaining % ≤80%)"},
      {"measurement": "GSPT1 substrate protein remaining %", "setting": "GSPT1", "result": "A (0% ≤ substrate protein remaining % ≤80%)"},
      {"measurement": "CK1α substrate protein remaining %", "setting": "CK1α", "result": "B (80%< substrate protein remaining % ≤100%)"},
      {"measurement": "IKZF2 substrate protein remaining %", "setting": "IKZF2", "result": "A (0% ≤ substrate protein remaining % ≤80%)"}
    ]},
    {"smiles": "O=C1CCN(N2Cc3cc(CN4CC=C(c5cccc6c(F)cccc56)CC4)ccc3C2=O)C(=O)N1", "note": "[GT-07590, 1-(5-((4-(5-fluoronaphthalen-1-yl)-3,6-dihydropyridin-1(2H)-yl)methyl)-1-oxoisoindolin-2-yl)dihydropyrimidine-2,4(1H,3H)-dione]", "values": [
      {"measurement": "IKZF3 substrate protein remaining %", "setting": "IKZF3", "result": "A (0% ≤ substrate protein remaining % ≤80%)"},
      {"measurement": "pIC50", "setting": "MM.1S cells", "result": "7.30 to 8.00"},
      {"measurement": "pIC50", "setting": "Jurkat cells", "result": "7.00 to 7.30"},
      {"measurement": "IKZF1 substrate protein remaining %", "setting": "IKZF1", "result": "A (0% ≤ substrate protein remaining % ≤80%)"},
      {"measurement": "WEE1 substrate protein remaining %", "setting": "WEE1", "result": "A (0% ≤ substrate protein remaining % ≤80%)"},
      {"measurement": "GSPT1 substrate protein remaining %", "setting": "GSPT1", "result": "A (0% ≤ substrate protein remaining % ≤80%)"},
      {"measurement": "CK1α substrate protein remaining %", "setting": "CK1α", "result": "B (80%< substrate protein remaining % ≤100%)"},
      {"measurement": "IKZF2 substrate protein remaining %", "setting": "IKZF2", "result": "A (0% ≤ substrate protein remaining % ≤80%)"}
    ]}
  ]
}
